Tests used:
[1] = molecular target: Aβ(2-8); assay: SPR binding kinetics to immobilized Aβ(2-8)
Method: (§1) Binding kinetics were determined by SPR using a Biacore™ X (GE Healthcare, UK). Synthetic Aβ peptides were dissolved in 10 mM NaAc, pH 4.0. The CM5 sensor chip surface (GE Healthcare, UK) was activated using N-ethyl-N′-3 […] carbodiimide (EDC) and N-hydroxysuccinimide (NHS) chemistry followed by 2-(2-pyridinyldithio)ethaneamine hydrochloride (PDEA), in order to introduce a reactive thiol group. Aβ was coupled via the C-terminal cysteine to the chip at a flow rate of 5 µl/min, and the remaining active groups were blocked by injecting cysteine. The immobilization procedure was performed according to manufacturer’s recommendation. All kinetic analyses were performed at a flow rate of 20 µl/min in PBS. Varying concentrations of scFv-IC16 (10 to 5000 nM) and IC16 (10 to 1000 nM) were injected. […] When required, the surface was regenerated by injecting 20 µl 50 mM glycine, pH 11.0. The data evaluation was performed using Biaevaluation Software 4.1.1. ScFv-IC16 data were fitted according to the Langmuir 1∶1 binding model, whereas IC16 data were fitted according to the bivalent binding model. Standard errors of equilibrium dissociation constants (KD) were calculated using standard errors of the corresponding association and dissociation rate constants.

[2] = tested on: Aβ(1-42); assay: Thioflavin T (ThT) assay of Aβ(1-42) fibrilization; assay type: biochemical, human; settings: for fibrilization of Aβ(1-42), ThT fluorescence: PBS, room temperature, value after 10 h, n = 5
Method: 7.5 µM Aβ(1-42) (stock solution of 190 µM in DMSO, freshly prepared before usage) were incubated with 10 µM ThT in PBS in absence or presence of different concentrations of scFv-IC16 (1.5, 3.75 and 7.5 µM) at room temperature for 24 h. In addition, scFv-IC16 (7.5 µM) without Aβ(1-42) was tested under the same conditions as the negative control. For all samples a reference value, generated with PBS and ThT only, was subtracted. […] The plate was covered by an adhesive film preventing evaporation of the sample buffer. Fluorescence recordings were performed every 30 min for 22 h (excitation wavelength 440 nm, emission wavelength 490 nm, Polarstar Optima, BMG, Ortenberg, Germany). The experiments were performed five-fold, and the average of the obtained values as well as the standard deviation was calculated.

[3] = tested on: Aβ(1-8); assay: SPR binding kinetics to immobilized Aβ(1-8)
Method: as §1

[4] = SPR Biacore X, CM5 chip, PBS, 25°C, global fit, scFv-IC16 Langmuir 1:1 model, IC16 bivalent model, ± standard error, SEM
[5] = SPR, Langmuir 1:1 binding model

## scFv-IC16: single-chain variable fragment (VH-(Gly4Ser)3-VL, His6- and Myc-tag) derived from Aβ binding monoclonal antibody IC16, expressed in E. coli
[1]; SPR Biacore X, CM5 chip, PBS, 25°C, global fit, scFv-IC16 Langmuir 1:1 model, IC16 bivalent model
  Kd: 112 nM
[1]; [4]
  k off: 7.65±0.03×10^−3 s^-1
  k on: 6.84±0.03×10^4 M^-1 s^-1
[1]; [5]
  Kd: ~112 nM
[2]; 7.5 µM scFv-IC16 without Aβ(1-42), negative control, after 10 h
  ThT fluorescence of scFv-IC16 only: did not show ThT fluorescence
[2]; ratio 1:1: 7.5 µM Aβ(1-42) with 7.5 µM scFv-IC16, 10 µM ThT
  fibrilization of Aβ(1-42), ThT fluorescence: completely inhibited
[2]; ratio 2:1: 7.5 µM Aβ(1-42) with 3.75 µM scFv-IC16, 10 µM ThT
  fibrilization of Aβ(1-42), ThT fluorescence: reduced the ThT fluorescence significantly
[2]; ratio 5:1: 7.5 µM Aβ(1-42) with 1.5 µM scFv-IC16, 10 µM ThT
  fibrilization of Aβ(1-42), ThT fluorescence: reduced the ThT fluorescence significantly
[3]; SPR Biacore X, Aβ peptide coupled via C-terminal cysteine to CM5 chip, PBS, 25°C, 20 µl/min, global fit, scFv-IC16 Langmuir 1:1 model, IC16 bivalent model, ± standard error, SEM
  k on: 3.10±0.02×10^4 M^-1 s^-1
[3]; SPR Biacore X, CM5 chip, PBS, 25°C, global fit, scFv-IC16 Langmuir 1:1 model, IC16 bivalent model, standard error from kon and koff errors, SEM
  Kd: 553 nM
[3]; [4]
  k off: 1.72±0.005×10^−2 s^-1
[3]; [5]
  Kd: 550 nM

Reference: paper PMC3608532, “Characterization of a Single-Chain Variable Fragment Recognizing a Linear Epitope of Aβ: A Biotechnical Tool for Studies on Alzheimer’s Disease?” (PLoS ONE, 2013)
